“And” between values parts separate entries of the source, which are not always exact repeats. Equal entries are not always repeated. Inconclusive results and toxic doses are left out. Cut-off read from the data, not from the text of the source: active = T/C of 150% or more; inactive = T/C below 125%.
System: L1210 leukemia ip in BDF1 mice, survival T/C
Test: NCI In Vivo Anticancer Drug Screen. Data for tumor model L1210 Leukemia (intraperitoneal) in B6D2F1 (BDF1) mice
Details: higher = longer survival
Outline: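 Mice bearing the transplanted tumor received compound or vehicle. Survival of the treated group was divided by that of the vehicle-treated control group to give the ratio.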

[1] = endpoint: mean survival time, dose: 50.0 mg/kg/injection, schedule: Q01DX009 (ip), vehicle: water
[2] = endpoint: mean survival time, dose: 100.0 mg/kg/injection, schedule: Q01DX009 (ip), vehicle: water
[3] = endpoint: mean survival time, dose: 200.0 mg/kg/injection, schedule: Q01DX001 (ip), vehicle: saline
[4] = endpoint: mean survival time, dose: 200.0 mg/kg/injection, schedule: Q01DX009 (ip), vehicle: water
[5] = endpoint: mean survival time, dose: 100.0 mg/kg/injection, schedule: Q04DX003 (ip), vehicle: Klucel (hydroxypropylcellulose) (HPC)

Measured: T/C

CC(=O)C=O
inactive: endpoint: mean survival time, dose: 12.5 mg/kg/injection, schedule: Q01DX009 (ip), vehicle: saline 98 % of control | endpoint: mean survival time, dose: 20.5 mg/kg/injection, schedule: Q01DX006 (ip), vehicle: saline 100 % of control | endpoint: mean survival time, dose: 20.5 mg/kg/injection, schedule: Q ##X009 (ip), vehicle: saline 102 % of control | endpoint: mean survival time, dose: 20.5 mg/kg/injection, schedule: Q## X Z (ip), vehicle: saline 101 % of control | endpoint: mean survival time, dose: 25.0 mg/kg/injection, schedule: Q01DX009 (ip), vehicle: saline 88 % of control | endpoint: mean survival time, dose: 29.5 mg/kg/injection, schedule: Q01DX006 (ip), vehicle: saline 105 % of control | endpoint: mean survival time, dose: 29.5 mg/kg/injection, schedule: Q ##X009 (ip), vehicle: saline 98 % of control | endpoint: mean survival time, dose: 29.5 mg/kg/injection, schedule: Q## X Z (ip), vehicle: saline 97 % of control | endpoint: mean survival time, dose: 41.0 mg/kg/injection, schedule: Q03DX002 (ip), vehicle: saline 107 % of control | endpoint: mean survival time, dose: 42.0 mg/kg/injection, schedule: Q01DX006 (ip), vehicle: saline 96 % of control | endpoint: mean survival time, dose: 42.0 mg/kg/injection, schedule: Q ##X009 (ip), vehicle: saline 110 % of control | endpoint: mean survival time, dose: 42.0 mg/kg/injection, schedule: Q## X Z (ip), vehicle: saline 110 % of control | endpoint: mean survival time, dose: 50.0 mg/kg/injection, schedule: Q01DX009 (ip), vehicle: saline 93 % of control | [1] 110 % of control | endpoint: mean survival time, dose: 60.0 mg/kg/injection, schedule: Q01DX006 (ip), vehicle: saline 106 % of control and 107 % of control | endpoint: mean survival time, dose: 60.0 mg/kg/injection, schedule: Q ##X009 (ip), vehicle: saline 91 % of control | endpoint: mean survival time, dose: 60.0 mg/kg/injection, schedule: Q## X Z (ip), vehicle: saline 91 % of control | endpoint: mean survival time, dose: 71.0 mg/kg/injection, schedule: Q03DX002 (ip), vehicle: saline 118 % of control | endpoint: mean survival time, dose: 75.0 mg/kg/injection, schedule: Q01DX009 (ip), vehicle: water 113 % of control | endpoint: mean survival time, dose: 93.0 mg/kg/injection, schedule: Q01DX001 (ip), vehicle: saline 113 % of control | endpoint: mean survival time, dose: 100.0 mg/kg/injection, schedule: Q01DX009 (ip), vehicle: saline 97 % of control | [2] 110 % of control | endpoint: mean survival time, dose: 107.0 mg/kg/injection, schedule: Q03DX002 (ip), vehicle: saline 116 % of control | endpoint: mean survival time, dose: 127.0 mg/kg/injection, schedule: Q01DX001 (ip), vehicle: saline 123 % of control | endpoint: mean survival time, dose: 150.0 mg/kg/injection, schedule: Q01DX009 (ip), vehicle: water 103 % of control | endpoint: mean survival time, dose: 160.0 mg/kg/injection, schedule: Q03DX002 (ip), vehicle: saline 111 % of control | [3] 97 % of control | endpoint: mean survival time, dose: 200.0 mg/kg/injection, schedule: Q01DX009 (ip), vehicle: saline 104 % of control | [4] 91 % of control | endpoint: mean survival time, dose: 400.0 mg/kg/injection, schedule: Q01DX009 (ip), vehicle: saline 111 % of control | endpoint: median survival time, dose: 35.0 mg/kg/injection, schedule: Q01DX005 (ip), vehicle: other 104 % of control | endpoint: median survival time, dose: 35.0 mg/kg/injection, schedule: Q01DX005 (ip), vehicle: saline sonified 105 % of control | endpoint: median survival time, dose: 44.0 mg/kg/injection, schedule: Q01DX005 (ip), vehicle: other 104 % of control | endpoint: median survival time, dose: 44.0 mg/kg/injection, schedule: Q01DX005 (ip), vehicle: saline sonified 105 % of control | endpoint: median survival time, dose: 55.0 mg/kg/injection, schedule: Q01DX005 (ip), vehicle: other 106 % of control | endpoint: median survival time, dose: 55.0 mg/kg/injection, schedule: Q01DX005 (ip), vehicle: saline sonified 111 % of control | endpoint: median survival time, dose: 69.0 mg/kg/injection, schedule: Q01DX005 (ip), vehicle: other 107 % of control | endpoint: median survival time, dose: 69.0 mg/kg/injection, schedule: Q01DX005 (ip), vehicle: saline sonified 111 % of control | endpoint: median survival time, dose: 86.0 mg/kg/injection, schedule: Q01DX005 (ip), vehicle: other 110 % of control | endpoint: median survival time, dose: 86.0 mg/kg/injection, schedule: Q01DX005 (ip), vehicle: saline sonified 111 % of control | endpoint: median survival time, dose: 175.0 mg/kg/injection, schedule: Q01DX001 (ip), vehicle: other 101 % of control | endpoint: median survival time, dose: 175.0 mg/kg/injection, schedule: Q01DX001 (ip), vehicle: saline sonified 100 % of control | endpoint: median survival time, dose: 194.0 mg/kg/injection, schedule: Q01DX001 (ip), vehicle: other 101 % of control | endpoint: median survival time, dose: 194.0 mg/kg/injection, schedule: Q01DX001 (ip), vehicle: saline sonified 100 % of control | endpoint: median survival time, dose: 216.0 mg/kg/injection, schedule: Q01DX001 (ip), vehicle: other 98 % of control | endpoint: median survival time, dose: 216.0 mg/kg/injection, schedule: Q01DX001 (ip), vehicle: saline sonified 100 % of control | endpoint: median survival time, dose: 240.0 mg/kg/injection, schedule: Q01DX001 (ip), vehicle: other 118 % of control | endpoint: median survival time, dose: 240.0 mg/kg/injection, schedule: Q01DX001 (ip), vehicle: saline sonified 116 % of control | endpoint: median survival time, dose: 268.0 mg/kg/injection, schedule: Q01DX001 (ip), vehicle: other 107 % of control | endpoint: median survival time, dose: 268.0 mg/kg/injection, schedule: Q01DX001 (ip), vehicle: saline sonified 105 % of control | endpoint: median survival time, dose: 298.0 mg/kg/injection, schedule: Q01DX001 (ip), vehicle: other 116 % of control | endpoint: median survival time, dose: 298.0 mg/kg/injection, schedule: Q01DX001 (ip), vehicle: saline sonified 116 % of control

CC(=O)OC1(C2(OC(C)=O)C=CC(=NS(=O)(=O)c3ccccc3)C=C2)C=CC(=NS(=O)(=O)c2ccccc2)C=C1 (stereo not given)
inactive: endpoint: mean survival time, dose: 100.0 mg/kg/injection, schedule: Q01DX009 (ip), vehicle: saline with Tween-80 100 % of control | endpoint: mean survival time, dose: 100.0 mg/kg/injection, schedule: Q04DX003 (ip), vehicle: saline with Tween-80 94 % of control | endpoint: mean survival time, dose: 200.0 mg/kg/injection, schedule: Q01DX009 (ip), vehicle: saline with Tween-80 93 % of control | endpoint: mean survival time, dose: 200.0 mg/kg/injection, schedule: Q04DX003 (ip), vehicle: saline with Tween-80 90 % of control | endpoint: mean survival time, dose: 400.0 mg/kg/injection, schedule: Q01DX009 (ip), vehicle: saline with Tween-80 97 % of control | endpoint: mean survival time, dose: 400.0 mg/kg/injection, schedule: Q04DX003 (ip), vehicle: saline with Tween-80 87 % of control

COc1ccc(CC(=O)O)c(OC)c1
inactive: endpoint: mean survival time, dose: 100.0 mg/kg/injection, schedule: Q01DX007 (ip), vehicle: saline with Tween-80 98 % of control | endpoint: mean survival time, dose: 100.0 mg/kg/injection, schedule: Q04DX003 (ip), vehicle: saline 94 % of control | endpoint: mean survival time, dose: 200.0 mg/kg/injection, schedule: Q01DX007 (ip), vehicle: saline with Tween-80 95 % of control | endpoint: mean survival time, dose: 200.0 mg/kg/injection, schedule: Q04DX003 (ip), vehicle: saline 99 % of control | endpoint: mean survival time, dose: 400.0 mg/kg/injection, schedule: Q04DX003 (ip), vehicle: saline 94 % of control

O=C(CCCC(=O)N/N=C/c1cc(Br)cc(Br)c1)N/N=C\c1cc(Br)cc(Br)c1
inactive: endpoint: mean survival time, dose: 50.0 mg/kg/injection, schedule: Q01DX001 (ip), vehicle: saline 96 % of control | endpoint: mean survival time, dose: 100.0 mg/kg/injection, schedule: Q01DX001 (ip), vehicle: saline 98 % of control | [3] 96 % of control | endpoint: mean survival time, dose: 400.0 mg/kg/injection, schedule: Q01DX001 (ip), vehicle: saline 90 % of control

CCC(=O)Nc1ccccc1
inactive: endpoint: mean survival time, dose: 100.0 mg/kg/injection, schedule: Q01DX009 (ip), vehicle: Klucel (hydroxypropylcellulose) (HPC) 101 % of control | [5] 100 % of control | endpoint: mean survival time, dose: 200.0 mg/kg/injection, schedule: Q01DX009 (ip), vehicle: Klucel (hydroxypropylcellulose) (HPC) 95 % of control | endpoint: mean survival time, dose: 200.0 mg/kg/injection, schedule: Q04DX003 (ip), vehicle: Klucel (hydroxypropylcellulose) (HPC) 104 % of control | endpoint: mean survival time, dose: 400.0 mg/kg/injection, schedule: Q01DX009 (ip), vehicle: Klucel (hydroxypropylcellulose) (HPC) 108 % of control | endpoint: mean survival time, dose: 400.0 mg/kg/injection, schedule: Q04DX003 (ip), vehicle: Klucel (hydroxypropylcellulose) (HPC) 114 % of control

O=C1NC(=O)C(c2cccs2)(c2cccs2)N1
inactive: endpoint: mean survival time, dose: 25.0 mg/kg/injection, schedule: Q01DX009 (ip), vehicle: water 98 % of control | [1] 102 % of control | [2] 98 % of control | endpoint: mean survival time, dose: 100.0 mg/kg/injection, schedule: Q04DX003 (ip), vehicle: water 106 % of control | [4] 91 % of control | endpoint: mean survival time, dose: 200.0 mg/kg/injection, schedule: Q04DX003 (ip), vehicle: water 112 % of control | endpoint: mean survival time, dose: 300.0 mg/kg/injection, schedule: Q01DX009 (ip), vehicle: water 90 % of control

COc1cc(CCN)ccc1OCc1ccccc1
inactive: endpoint: mean survival time, dose: 25.0 mg/kg/injection, schedule: Q04DX003 (ip), vehicle: Klucel (hydroxypropylcellulose) (HPC) 97 % of control | endpoint: mean survival time, dose: 50.0 mg/kg/injection, schedule: Q04DX003 (ip), vehicle: Klucel (hydroxypropylcellulose) (HPC) 101 % of control | endpoint: mean survival time, dose: 100.0 mg/kg/injection, schedule: Q01DX001 (ip), vehicle: Klucel (hydroxypropylcellulose) (HPC) 96 % of control | [5] 104 % of control and 105 % of control | endpoint: mean survival time, dose: 200.0 mg/kg/injection, schedule: Q01DX001 (ip), vehicle: Klucel (hydroxypropylcellulose) (HPC) 94 % of control
